Results taken from patent publication US20230293458A1, “MULTIBIOTIC AGENTS AND METHODS OF USING THE SAME” (Flagship Pioneering Innovations V, Inc., priority 2017, published 2023).

What was measured:
[1] = Stability of multibiotic agents in Simulated Gastric Fluid (SGF); assay type: in vitro ADME; conditions: simulated gastric fluid pH 1.6 with pepsin, 37° C., 1 μM
Experimental: Assay 3. Stability of multibiotic agents in Simulated Gastric Fluid (SGF). This assay can be used to assess the stability of a multibiotic agent in a stomach.
Medium was prepared by dissolving 2 g of sodium chloride in 0.6 L in ultrapure water (MilliQ®, Millipore Sigma, Darmstadt, Germany). The pH was adjusted to 1.6 with 1 N hydrochloric acid, and the volume was then adjusted to 1 L with purified water.
60 mg FaSSIF powder (Biorelevant™, London, UK) were dissolved in 500 mL buffer (above). Pepsin was added (0.1 mg/mL) (Millipore Sigma, Darmstadt, Germany), and the solution was stirred. The resulting SGF media were used fresh for each experiment.
Test compounds were dissolved in DMSO stock to 1 mM. An aliquot of the DMSO stock solution was removed and diluted in the SGF Media in 15 mL falcon tubes to generate a total compound concentration of 1 μM. A 1 mL aliquot was immediately removed and diluted once with 1 volume of acetonitrile for T0 timepoint. The mixture was sealed and mixed at 37° C. in an incubator. Aliquots (1 mL) were removed at regular intervals and immediately quenched by the addition of 1 volume of acetonitrile. The resulting samples were analyzed by LC/MS to determine degradation rates in SGF.

[2] = Stability of multibiotic agents in Simulated Intestinal Fluid (SIF); assay type: in vitro ADME; conditions: simulated intestinal fluid pH 6.7 with pancreatin, 37° C., 1 μM
Experimental: Assay 2. Stability of multibiotic agents in Simulated Intestinal Fluid (SIF). This assay can be used to assess the stability of a multibiotic agent in a small intestine. Phosphate buffer was prepared by dissolving 0.42 g of sodium hydroxide pellets and 3.95 g of monobasic sodium phosphate monohydrate and 6.19 g of sodium chloride in ultrapure water (MilliQ®, Millipore Sigma, Darmstadt, Germany). The pH was adjusted to 6.7 using aq. HCl and aq. NaOH, as necessary, and the solution was diluted with ultrapure water to produce 1 L of the pH 6.7 buffer. 112 mg FaSSIF powder (Biorelevant™, London, UK) was dissolved in 50 mL of the pH 6.7 buffer. 2 to 3 mL of the resulting solution were then added to 500 mg pancreatin (Millipore Sigma, Darmstadt, Germany). The resulting mixture was agitated by finger tapping the vessel containing the mixture until milky suspension formed. At this time, the remainder of the 50 mL FaSSiF/pH 6.7 buffer solution was added. The resulting suspension was flipped upside down 10 times to produce SIF, which was used fresh. Test compounds are dissolved in DMSO stock to 1 mM. An aliquot of the DMSO stock solution is removed and diluted in the SIF media in 15 mL falcon tubes to produce a mixture with a tested compound concentration of 1 μM. A 1 mL aliquot is immediately removed and diluted once with 1 volume of acetonitrile for T0 timepoint. The mixture is sealed and agitated at 37° C. in an incubator. Aliquots (1 mL) are removed at regular intervals and immediately quenched by the addition of 1 volume of acetonitrile. The resulting samples are analyzed by LC/MS to determine degradation rates.

CC(O)CCOC(=O)c1cc(N)ccc1O (stereo in doubt) [Example 112, [(3R)-3-hydroxybutyl] 5-amino-2-hydroxy-benzoate]
Assay 2 (SGF) (% Remaining @ 4 hours) [1]: C (>75% of the tested compound remaining) | Assay 3 (SIF) (% @ Remaining 4 hours) [2]: C (>75% of the tested compound remaining)

CCCC(=O)OCC(OC(=O)CCC)[C@@H](OC(=O)CCC)[C@H](OC(=O)CCC)C(OC(=O)CCC)C(=O)O (stereo in doubt) [Example 113, (2S,3S,4R,5S)-2,3,4,5,6-penta(butanoyloxy)hexanoic acid]
Assay 2 (SGF) (% Remaining @ 4 hours) [1]: C (>75% of the tested compound remaining) | Assay 3 (SIF) (% @ Remaining 4 hours) [2]: B (25-75% of the tested compound remaining)

COc1cc(/C=C/C(=O)CC(=O)/C=C/c2ccc(OC(=O)Cc3c[nH]c4ccccc34)c(OC)c2)ccc1OC(=O)Cc1c[nH]c2ccccc12 [Example 1, [4-[(1E,6E)-7-[4-[2-(1H-indol-3-yl)acetyl]oxy-3-methoxy-phenyl]-3,5-dioxo-hepta-1,6-dienyl]-2-methoxy-phenyl] 2-(1H-indol-3-yl)acetate]
Assay 2 (SGF) (% Remaining @ 4 hours) [1]: C (>75% of the tested compound remaining) | Assay 3 (SIF) (% @ Remaining 4 hours) [2]: C (>75% of the tested compound remaining)

CCCC(=O)Oc1ccc(N)cc1C(=O)O [Example 2, 5-amino-2-butanoyloxy-benzoic acid]
Assay 2 (SGF) (% Remaining @ 4 hours) [1]: C (>75% of the tested compound remaining) | Assay 3 (SIF) (% @ Remaining 4 hours) [2]: C (>75% of the tested compound remaining)

CCCC(=O)Oc1ccc(/N=N/c2ccc(OC(=O)CCC)c(C(=O)O)c2)cc1C(=O)O [Example 3, 2-butanoyloxy-5-[(E)-(4-butanoyloxy-3-carboxy-phenyl)azo]benzoic acid]
Assay 2 (SGF) (% Remaining @ 4 hours) [1]: A (<25% of the tested compound remaining) | Assay 3 (SIF) (% @ Remaining 4 hours) [2]: A (<25% of the tested compound remaining)

CCCC(=O)Oc1ccc(/C=C/c2cc(OC(=O)CCC)cc(OC(=O)CCC)c2)cc1 [Example 7, [4-[(E)-2-[3,5-di(butanoyloxy)phenyl]vinyl]phenyl] butanoate]
Assay 2 (SGF) (% Remaining @ 4 hours) [1]: C (>75% of the tested compound remaining) | Assay 3 (SIF) (% @ Remaining 4 hours) [2]: B (25-75% of the tested compound remaining)

O=C(Cc1c[nH]c2ccccc12)Oc1ccc(/C=C/c2cc(OC(=O)Cc3c[nH]c4ccccc34)cc(OC(=O)Cc3c[nH]c4ccccc34)c2)cc1 [Example 8, [4-[(E)-2-[3,5-bis[[2-(1H-indol-3-yl)acetyl]oxy]phenyl]vinyl]phenyl] 2-(1H-indol-3-yl)acetate]
Assay 2 (SGF) (% Remaining @ 4 hours) [1]: C (>75% of the tested compound remaining) | Assay 3 (SIF) (% @ Remaining 4 hours) [2]: C (>75% of the tested compound remaining)

O=C(CCCc1ccccc1)Oc1ccc(/C=C/c2cc(OC(=O)CCCc3ccccc3)cc(OC(=O)CCCc3ccccc3)c2)cc1 [Example 9, [4-[(E)-2-[3,5-bis(4-phenylbutanoyloxy)phenyl]vinyl]phenyl] 4-phenylbutanoate]
Assay 3 (SIF) (% @ Remaining 4 hours) [2]: C (>75% of the tested compound remaining)

CCCC(=O)Oc1ccc(/C=C/C(=O)CC(=O)/C=C/c2ccc(OC(=O)CCC)c(OC)c2)cc1OC [Example 14, [4-[(1E,6E)-7-(4-butanoyloxy-3-methoxy-phenyl)-3,5-dioxo-hepta-1,6-dienyl]-2-methoxy-phenyl] butanoate]
Assay 2 (SGF) (% Remaining @ 4 hours) [1]: C (>75% of the tested compound remaining) | Assay 3 (SIF) (% @ Remaining 4 hours) [2]: C (>75% of the tested compound remaining)

CC(=O)Oc1ccc2c(c1)oc(=O)c1cc(OC(C)=O)c(OC(C)=O)cc12 [Example 51, (8,9-diacetoxy-6-oxo-benzo[c]chromen-3-yl) acetate]
Assay 2 (SGF) (% Remaining @ 4 hours) [1]: C (>75% of the tested compound remaining) | Assay 3 (SIF) (% @ Remaining 4 hours) [2]: C (>75% of the tested compound remaining)

O=C(Cc1c[nH]c2ccccc12)Oc1ccc2c(c1)oc(=O)c1cc(OC(=O)Cc3c[nH]c4ccccc34)c(OC(=O)Cc3c[nH]c4ccccc34)cc12 [Example 55, [8,9-bis[[2-(1H-indol-3-yl)acetyl]oxy]-6-oxo-benzo[c]chromen-3-yl] 2-(1H-indol-3-yl)acetate]
Assay 2 (SGF) (% Remaining @ 4 hours) [1]: C (>75% of the tested compound remaining) | Assay 3 (SIF) (% @ Remaining 4 hours) [2]: B (25-75% of the tested compound remaining)

O=C(CCc1c[nH]c2ccccc12)Oc1ccc2c(c1)oc(=O)c1cc(OC(=O)CCc3c[nH]c4ccccc34)c(OC(=O)CCc3c[nH]c4ccccc34)cc12 [Example 56, [8,9-bis[3-(1H-indol-3-yl)propanoyloxy]-6-oxo-benzo[c]chromen-3-yl] 3-(1H-indol-3-yl)propanoate]
Assay 2 (SGF) (% Remaining @ 4 hours) [1]: C (>75% of the tested compound remaining) | Assay 3 (SIF) (% @ Remaining 4 hours) [2]: C (>75% of the tested compound remaining)

CCCCCCCC(=O)Oc1ccc2c(c1)oc(=O)c1cc(OC(=O)CCCCCCC)c(OC(=O)CCCCCCC)cc12 [Example 57, [8,9-di(octanoyloxy)-6-oxo-benzo[c]chromen-3-yl] octanoate]
Assay 2 (SGF) (% Remaining @ 4 hours) [1]: C (>75% of the tested compound remaining)

CCCCCCCC(=O)Oc1ccc(/C=C/c2cc(OC(=O)CCCCCCC)cc(OC(=O)CCCCCCC)c2)cc1 [Example 69, [4-[(E)-2-[3,5-di(octanoyloxy)phenyl]vinyl]phenyl] octanoate]
Assay 2 (SGF) (% Remaining @ 4 hours) [1]: C (>75% of the tested compound remaining)

CCCCCCCCCC(=O)Oc1ccc(/C=C/c2cc(OC(=O)CCCCCCCCC)cc(OC(=O)CCCCCCCCC)c2)cc1 [Example 70, [4-[(E)-2-[3,5-di(decanoyloxy)phenyl]vinyl]phenyl] decanoate]
Assay 2 (SGF) (% Remaining @ 4 hours) [1]: C (>75% of the tested compound remaining)

CCCC(=O)O[C@H](C)CC(=O)Oc1ccc(/C=C/c2cc(OC(=O)C[C@@H](C)OC(=O)CCC)cc(OC(=O)C[C@@H](C)OC(=O)CCC)c2)cc1 [Example 72, [4-[(E)-2-[3,5-bis[[(3R)-3-butanoyloxybutanoyl]oxy]phenyl]vinyl]phenyl] (3R)-3-butanoyloxy-butanoate]
Assay 2 (SGF) (% Remaining @ 4 hours) [1]: C (>75% of the tested compound remaining) | Assay 3 (SIF) (% @ Remaining 4 hours) [2]: B (25-75% of the tested compound remaining)

CCCC(=O)O[C@H](C)CC(=O)Oc1ccc(/C=C/C(=O)CC(=O)/C=C/c2ccc(OC(=O)C[C@@H](C)OC(=O)CCC)c(OC)c2)cc1OC [Example 73, [4-[(1E,6E)-7-[4-[(3R)-3-butanoyloxybutanoyl]oxy-3-methoxy-phenyl]-3,5-dioxo-hepta-1,6-dienyl]-2-methoxy-phenyl] (3R)-3-butanoyloxybutanoate]
Assay 2 (SGF) (% Remaining @ 4 hours) [1]: C (>75% of the tested compound remaining) | Assay 3 (SIF) (% @ Remaining 4 hours) [2]: B (25-75% of the tested compound remaining)

CC(C)(COC(=O)CCc1c[nH]c2ccccc12)[C@@H](OC(=O)CCc1c[nH]c2ccccc12)C(=O)NCCCOC(=O)CCc1c[nH]c2ccccc12 [Example 93, 3-[[(2R)-2,4-bis[3-(1H-indol-3-yl)propanoyloxy]-3,3-dimethyl-butanoyl]amino]propyl 3-(1H-indol-3-yl)propanoate]
Assay 3 (SIF) (% @ Remaining 4 hours) [2]: A (<25% of the tested compound remaining)

O=C(Cc1c[nH]c2ccccc12)O[C@H]1CO[C@H]2[C@@H]1OC[C@H]2OC(=O)Cc1c[nH]c2ccccc12 [Example 109, [(3S,3aR,6R,6aR)-6-[2-(1H-indol-3-yl)acetyl]oxy-2,3,3a,5,6,6a-hexahydrofuro[3,2-b]furan-3-yl] 2-(1H-indol-3-yl) acetate]
Assay 3 (SIF) (% @ Remaining 4 hours) [2]: A (<25% of the tested compound remaining)

CCCC(=O)O[C@@H]1[C@@H](OC(=O)CCC)[C@H](Oc2ccccc2C(=O)O)OC[C@H]1OC(=O)CCC [Example 120, 2-[(2S,3R,4S,5R)-3,4,5-tri(butanoyloxy)tetrahydropyran-2-yl]oxybenzoic acid]
Assay 3 (SIF) (% @ Remaining 4 hours) [2]: A (<25% of the tested compound remaining)

CCCC(=O)O[C@@H]1[C@@H](OC(=O)CCC)[C@@H](Oc2ccc(N)cc2C(=O)O)OC[C@@H]1OC(=O)CCC [Example 121, 5-amino-2-[(2R,3R,4S,5S)-3,4,5-tri(butanoyloxy)tetrahydropyran-2-yl]oxy-benzoic acid]
Assay 3 (SIF) (% @ Remaining 4 hours) [2]: C (>75% of the tested compound remaining)

CCC(=O)O[C@H]1[C@H](OC(=O)CC)COC(OC(=O)CCc2c[nH]c3ccccc23)[C@@H]1OC(=O)CC (stereo partly drawn) [Example 168, [(3R,4S,5R)-3,4,5-tri(propanoyloxy)tetrahydropyran-2-yl] 3-(1H-indol-3-yl)propanoate]
Assay 2 (SGF) (% Remaining @ 4 hours) [1]: C (>75% of the tested compound remaining)
